Read-outs that look alike come from different tables or passages of the source.
Key:
CDK4 = target: T1, CDK4 (Homo sapiens, UniProt P11802); test: CDK4 percentage degradation in Calu-1 cells (immunoblotting); format: cell-based; details: for inhibition at 0.2 µM: read-out: CDK4 Degradation (200 nM)
T1 construct: endogenous in cells; host or cells: Calu-1
How it was run: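 CDK4 degradation was measured by immunoblotting. Cells were washed in cold PBS and lysed in RIPA buffer with inhibitors for 30 min at 4° C., then spun at 13,000 rpm to clear. After BCA protein determination, lysates were heated at 99° C. for 5 min in Laemmli buffer, resolved on SDS-PAGE, imaged on a ChemiDoc MP with ECL substrate, and band intensities quantified.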

cyclin D1 = test: Cyclin D1 percentage degradation in Calu-1 cells (immunoblotting); format: cell-based; details: 16 hours
How it was run: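 Cyclin D1 degradation was assessed by western blot. Clarified lysates, obtained by RIPA lysis with inhibitors and centrifugation at 13,000 rpm, were normalized by BCA protein assay and separated by SDS-PAGE. Bands were detected with Western ECL Substrate on a Bio-Rad ChemiDoc MP Imaging system and quantified in Image Lab software to derive percentage degradation.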

T1 sequence (P11802 2-303 limits assumed): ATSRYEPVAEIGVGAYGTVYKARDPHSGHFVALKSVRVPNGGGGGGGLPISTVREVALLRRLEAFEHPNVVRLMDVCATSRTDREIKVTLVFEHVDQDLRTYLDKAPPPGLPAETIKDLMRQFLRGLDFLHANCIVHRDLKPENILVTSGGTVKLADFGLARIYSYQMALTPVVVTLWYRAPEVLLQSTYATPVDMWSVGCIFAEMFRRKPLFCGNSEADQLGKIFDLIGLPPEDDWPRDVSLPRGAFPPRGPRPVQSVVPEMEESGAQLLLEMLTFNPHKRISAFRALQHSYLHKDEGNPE
T1 sequence (P24385 whole entry partner): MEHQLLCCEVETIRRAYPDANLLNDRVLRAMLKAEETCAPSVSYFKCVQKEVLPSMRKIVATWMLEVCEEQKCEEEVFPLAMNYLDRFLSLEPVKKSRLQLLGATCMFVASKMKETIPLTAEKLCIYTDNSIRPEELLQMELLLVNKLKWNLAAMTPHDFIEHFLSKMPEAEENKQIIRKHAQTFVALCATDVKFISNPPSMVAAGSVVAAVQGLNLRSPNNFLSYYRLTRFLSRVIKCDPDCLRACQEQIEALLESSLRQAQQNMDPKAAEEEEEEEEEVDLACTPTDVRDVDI
T1 sequence (Q16531 2-1140 limits assumed, further chain): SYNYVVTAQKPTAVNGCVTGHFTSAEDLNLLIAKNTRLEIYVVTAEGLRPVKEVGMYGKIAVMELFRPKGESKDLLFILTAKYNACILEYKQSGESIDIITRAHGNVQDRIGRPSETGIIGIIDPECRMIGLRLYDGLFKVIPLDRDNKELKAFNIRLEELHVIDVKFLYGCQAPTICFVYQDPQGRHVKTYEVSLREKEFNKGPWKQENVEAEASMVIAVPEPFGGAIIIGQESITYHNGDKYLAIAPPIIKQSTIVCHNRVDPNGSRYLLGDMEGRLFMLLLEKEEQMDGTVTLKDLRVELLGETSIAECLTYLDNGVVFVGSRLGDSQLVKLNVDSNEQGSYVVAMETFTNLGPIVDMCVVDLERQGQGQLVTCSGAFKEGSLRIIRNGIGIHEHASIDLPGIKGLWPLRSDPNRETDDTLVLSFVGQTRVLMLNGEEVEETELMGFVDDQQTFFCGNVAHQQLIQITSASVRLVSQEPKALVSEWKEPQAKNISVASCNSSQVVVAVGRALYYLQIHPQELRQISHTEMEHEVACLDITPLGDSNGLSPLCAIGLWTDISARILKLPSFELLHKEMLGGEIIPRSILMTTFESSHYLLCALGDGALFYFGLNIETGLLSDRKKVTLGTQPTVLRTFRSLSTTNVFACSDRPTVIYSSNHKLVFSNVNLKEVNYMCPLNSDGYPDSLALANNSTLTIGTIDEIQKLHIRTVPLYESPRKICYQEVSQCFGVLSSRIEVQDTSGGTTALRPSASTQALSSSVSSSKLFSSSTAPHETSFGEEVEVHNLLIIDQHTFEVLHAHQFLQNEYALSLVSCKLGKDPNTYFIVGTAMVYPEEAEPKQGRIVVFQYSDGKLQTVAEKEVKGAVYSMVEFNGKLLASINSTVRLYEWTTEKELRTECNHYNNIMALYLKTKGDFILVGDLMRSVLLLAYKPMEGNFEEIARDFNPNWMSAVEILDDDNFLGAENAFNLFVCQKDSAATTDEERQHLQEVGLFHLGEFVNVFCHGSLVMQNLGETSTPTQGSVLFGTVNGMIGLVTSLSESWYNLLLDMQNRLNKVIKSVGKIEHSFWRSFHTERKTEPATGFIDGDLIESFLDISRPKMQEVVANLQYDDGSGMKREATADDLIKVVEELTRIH

| Structure (SMILES) | inhibition at 0.2 µM (CDK4; Calu-1 cells, 200 nM, 16 hours) | CyclinD1 Degradation (200 nM) (cyclin D1) | inhibition at 0.2 µM (CDK4; Calu-1, 16 h) | inhibition at 10 µM (CDK4; Calu-1 cells, 10 μM, 16 hours, read-out: CDK4 Degradation (10 μM)) | CyclinD1 Degradation (10 μM) (cyclin D1; 10 μM) |
| --- | --- | --- | --- | --- | --- |
| COc1cnc(NC(=O)c2ccc(NCCOCCOCCOCCOCCOCCNC(=O)CN3CCN(c4ccc(Nc5ncc6c(C)c(C(C)=O)c(=O)n(C7CCCC7)c6n5)nc4)CC3)cc2C)s1 [CPD-030, 4-((1-(4-(6-((6-Acetyl-8-cyclopentyl-5-methyl-7-oxo-7,8-dihydropyrido[2,3-d]pyrimidin-2-yl)amino)pyridin-3-yl)piperazin-1-yl)-2-oxo-6,9,12,15,18-pentaoxa-3-azaicosan-20-yl)amino)-N-(5-methoxythiazol-2-yl)-2-methylbenzamide] | 30 to 50% | B (protein percentage degradation <80%, and >=50%) | – | – | – |
| CC(=O)c1c(C)c2cnc(Nc3ccc(N4CCN(CC(=O)NCCOCCOCCOCCNc5ccc(C)c(C(=O)Nc6nc(C)c(C)s6)c5)CC4)cn3)nc2n(C2CCCC2)c1=O [CPD-127, 5-((1-(4-(6-((6-Acetyl-8-cyclopentyl-5-methyl-7-oxo-7,8-dihydropyrido[2,3-d]pyrimidin-2-yl)amino)pyridin-3-yl)piperazin-1-yl)-2-oxo-6,9,12-trioxa-3-azatetradecan-14-yl)amino)-N-(4,5-dimethylthiazol-2-yl)-2-methylbenzamide] | – | C (protein percentage degradation <50%, and >=30%) | 30 to 50% | – | – |
| CC(=O)c1c(C)c2cnc(Nc3ccc(N4CCN(CC(=O)NCCOCCOCCC(=O)Nc5ccccc5C(=O)Nc5ccccn5)CC4)cn3)nc2n(C2CCCC2)c1=O [CPD-053, 2-(3-(2-(2-(2-(4-(6-((6-Acetyl-8-cyclopentyl-5-methyl-7-oxo-7,8-dihydropyrido[2,3-d]pyrimidin-2-yl)amino)pyridin-3-yl)piperazin-1-yl)acetamido)ethoxy)ethoxy)propanamido)-N-(pyridin-2-yl)benzamide] | 50 to 80% | B (protein percentage degradation <80%, and >=50%) | – | – | – |
| CNc1ccc(C(=O)Nc2nc(C)c(C)s2)c(NC(=O)CCOCCOCCNC(=O)CN2CCN(c3ccc(Nc4ncc5c(C)c(C(C)=O)c(=O)n(C6CCCC6)c5n4)nc3)CC2)c1 [CPD-164, 2-(3-(2-(2-(2-(4-(6-((6-Acetyl-8-cyclopentyl-5-methyl-7-oxo-7,8-dihydropyrido[2,3-d]pyrimidin-2-yl)amino)pyridin-3-yl)piperazin-1-yl)acetamido)ethoxy)ethoxy)propanamido)-N-(4,5-dimethylthiazol-2-yl)-4-(methylamino)benzamide] | 50 to 80% | A (protein percentage degradation >=80%) | – | – | – |
| CC(=O)c1c(C)c2cnc(Nc3ccc(N4CCN(CC(=O)NCCOCCOCCCNc5ccccc5C(=O)Nc5nc(C)c(C)s5)CC4)cn3)nc2n(C2CCCC2)c1=O [CPD-267, 2-((3-(2-(2-(2-(4-(6-((6-Acetyl-8-cyclopentyl-5-methyl-7-oxo-7,8-dihydropyrido[2,3-d]pyrimidin-2-yl)amino)pyridin-3-yl)piperazin-1-yl)acetamido)ethoxy)ethoxy)propyl)amino)-N-(4,5-dimethylthiazol-2-yl)benzamide] | 50 to 80% | A (protein percentage degradation >=80%) | – | – | – |
| CC(=O)c1c(C)c2cnc(Nc3ccc(N4CCN(CC(=O)NCCOCCOCCOCCOCCOCCC(=O)Nc5ccccc5C(=O)Nc5nc(C)c(C)s5)CC4)cn3)nc2n(C2CCCC2)c1=O [CPD-175, 2-(1-(4-(6-((6-Acetyl-8-cyclopentyl-5-methyl-7-oxo-7,8-dihydropyrido[2,3-d]pyrimidin-2-yl)amino)pyridin-3-yl)piperazin-1-yl)-2-oxo-6,9,12,15,18-pentaoxa-3-azahenicosan-21-amido)-N-(4,5-dimethylthiazol-2-yl)benzamide] | – | A (protein percentage degradation >=80%) | > 80% | – | – |
| CC(=O)c1c(C)c2cnc(Nc3ccc(N4CCN(CC(=O)NCCOCCOCCC(=O)Nc5ccccc5C(=O)Nc5cc(C(F)(F)F)n(C)n5)CC4)cn3)nc2n(C2CCCC2)c1=O [CPD-069, 2-(3-(2-(2-(2-(4-(6-((6-Acetyl-8-cyclopentyl-5-methyl-7-oxo-7,8-dihydropyrido[2,3-d]pyrimidin-2-yl)amino)pyridin-3-yl)piperazin-1-yl)acetamido)ethoxy)ethoxy)propanamido)-N-(1-methyl-5-(trifluoromethyl)-1H-pyrazol-3-yl)benzamide] | < 30% | D (protein percentage degradation <30%) | – | – | – |
| CC(=O)c1c(C)c2cnc(Nc3ccc(N4CCN(CC(=O)NCCOCCOCCC(=O)Nc5ccccc5C(=O)Nc5nnc(C)s5)CC4)cn3)nc2n(C2CCCC2)c1=O [CPD-367, 2-(3-(2-(2-(2-(4-(6-((6-Acetyl-8-cyclopentyl-5-methyl-7-oxo-7,8-dihydropyrido[2,3-d]pyrimidin-2-yl)amino)pyridin-3-yl)piperazin-1-yl)acetamido)ethoxy)ethoxy)propanamido)-N-(5-methyl-1,3,4-thiadiazol-2-yl)benzamide] | < 30% | D (protein percentage degradation <30%) | – | – | – |
| CC(=O)c1c(C)c2cnc(Nc3ccc(N4CCN(CC(=O)NCCOCCOCCC(=O)Nc5ccccc5C(=O)Nc5ccc(OC6CC6)nn5)CC4)cn3)nc2n(C2CCCC2)c1=O [CPD-350, 2-(3-(2-(2-(2-(4-(6-((6-Acetyl-8-cyclopentyl-5-methyl-7-oxo-7,8-dihydropyrido[2,3-d]pyrimidin-2-yl)amino)pyridin-3-yl)piperazin-1-yl)acetamido)ethoxy)ethoxy)propanamido)-N-(6-cyclopropoxypyridazin-3-yl)benzamide] | 50 to 80% | A (protein percentage degradation >=80%) | – | – | – |
| CC(=O)c1c(C)c2cnc(Nc3ccc(N4CCN(CC(=O)NCCOCCOCCOCCOCCOCCNc5ccc(C(=O)Nc6ncc(Cl)s6)c(C)c5)CC4)cn3)nc2n(C2CCCC2)c1=O [CPD-005, 4-((1-(4-(6-((6-Acetyl-8-cyclopentyl-5-methyl-7-oxo-7,8-dihydropyrido[2,3-d]pyrimidin-2-yl)amino)pyridin-3-yl)piperazin-1-yl)-2-oxo-6,9,12,15,18-pentaoxa-3-azaicosan-20-yl)amino)-N-(5-chlorothiazol-2-yl)-2-methylbenzamide] | < 30% | D (protein percentage degradation <30%) | – | – | – |
| CC(=O)c1c(C)c2cnc(Nc3ccc(N4CCN(CC(=O)NCCOCCOCCC(=O)Nc5ccccc5CNc5nc(C)c(C)s5)CC4)cn3)nc2n(C2CCCC2)c1=O [CPD-154, 3-(2-(2-(2-(4-(6-((6-Acetyl-8-cyclopentyl-5-methyl-7-oxo-7,8-dihydropyrido[2,3-d]pyrimidin-2-yl)amino)pyridin-3-yl)piperazin-1-yl)acetamido)ethoxy)ethoxy)-N-(2-(((4,5-dimethylthiazol-2-yl)amino)methyl)phenyl)propanamide] | < 30% | D (protein percentage degradation <30%) | – | – | – |
| CC(=O)c1c(C)c2cnc(Nc3ccc(N4CCN(CC(=O)NCCOCCOCCC(=O)Nc5ccccc5C(=O)Nc5ncc(C)[nH]5)CC4)cn3)nc2n(C2CCCC2)c1=O [CPD-064, 2-(3-(2-(2-(2-(4-(6-((6-Acetyl-8-cyclopentyl-5-methyl-7-oxo-7,8-dihydropyrido[2,3-d]pyrimidin-2-yl)amino)pyridin-3-yl)piperazin-1-yl)acetamido)ethoxy)ethoxy)propanamido)-N-(5-methyl-1H-imidazol-2-yl)benzamide] | < 30% | D (protein percentage degradation <30%) | – | – | – |
| CC(=O)c1c(C)c2cnc(Nc3ccc(N4CCN(CC(=O)NCCCCCCCNc5cccc(C(=O)Nc6nc(C)c(C)s6)c5C)CC4)cn3)nc2n(C2CCCC2)c1=O [CPD-102, 3-((7-(2-(4-(6-((6-Acetyl-8-cyclopentyl-5-methyl-7-oxo-7,8-dihydropyrido[2,3-d]pyrimidin-2-yl)amino)pyridin-3-yl)piperazin-1-yl)acetamido)heptyl)amino)-N-(4,5-dimethylthiazol-2-yl)-2-methylbenzamide] | 50 to 80% | A (protein percentage degradation >=80%) | – | – | – |
| CC(=O)c1c(C)c2cnc(Nc3ccc(N4CCN(CC(=O)NCCCNc5cccc(C(=O)Nc6nc(C)c(C)s6)c5C)CC4)cn3)nc2n(C2CCCC2)c1=O [CPD-098, 3-((3-(2-(4-(6-((6-Acetyl-8-cyclopentyl-5-methyl-7-oxo-7,8-dihydropyrido[2,3-d]pyrimidin-2-yl)amino)pyridin-3-yl)piperazin-1-yl)acetamido)propyl)amino)-N-(4,5-dimethylthiazol-2-yl)-2-methylbenzamide] | < 30% | D (protein percentage degradation <30%) | – | – | – |
| Cc1nc(NC(=O)c2ccccc2NC(=O)CNC(=O)CN2CCN(c3ccc(Nc4ncc5cc(C(=O)N(C)C)n(C6CCCC6)c5n4)nc3)CC2)sc1C [CPD-286, 7-Cyclopentyl-2-((5-(4-(2-((2-((2-((4,5-dimethylthiazol-2-yl)carbamoyl)phenyl)amino)-2-oxoethyl)amino)-2-oxoethyl)piperazin-1-yl)pyridin-2-yl)amino)-N,N-dimethyl-7H-pyrrolo[2,3-d]pyrimidine-6-carboxamide] | – | – | – | 50 to 80% | A (protein percentage degradation >= 80%) |
| CC(=O)c1c(C)c2cnc(Nc3ccc(N4CCN(CC(=O)NCCCCCNC(=O)COc5ccc(C(=O)Nc6ncc(C)s6)c(C)c5)CC4)cn3)nc2n(C2CCCC2)c1=O [CPD-036, 4-(2-((5-(2-(4-(6-((6-Acetyl-8-cyclopentyl-5-methyl-7-oxo-7,8-dihydropyrido[2,3-d]pyrimidin-2-yl)amino)pyridin-3-yl)piperazin-1-yl)acetamido)pentyl)amino)-2-oxoethoxy)-2-methyl-N-(5-methylthiazol-2-yl)benzamide] | < 30% | D (protein percentage degradation <30%) | – | – | – |
